Measurements published in PMC4207412, “Secondary Structural Preferences of Some Antibacterial Cyclooctapeptides in the Presence of Calcium(II)” (International Journal of Medicinal Chemistry, 2012).
Read-outs that look alike come from different tables or passages of the source. Square brackets hold non-standard residues; d marks the D form. Peptide text beside a SMILES is read from it.

What was measured:
[1] = Isothermal titration calorimetry of Ca2+ binding in micellar DPC (10 mM); details: ITC, 30°C, 10% aqueous acetonitrile containing 10 mM micellar DPC; one-site model; mean of three experiments ± standard error mean
Experimental: (§1) Microcalorimetric titrations of peptides with metal ions were conducted by isothermal titration microcalorimetry (ITC) using a Microcal VP-ITC Instrument (Northampton, MA, USA). Experiments were carried out at 30°C in 10% acetonitrile in water. The peptide concentration was 0.15 or 0.30 mM (1.34 mL sample cell), and the metal ion [Ca(ClO4)2] concentration was varied from 9 to 15 mM in the syringe. Automated titrations were conducted until saturation, up to a Ca^2+/peptide mole ratio of about 12 : 1. Heats of dilution and mixing for each experiment were measured by titrating calcium(II) solution into 10% acetonitrile solution. The effective heat of each peptide and calcium(II) interaction was corrected for dilution and mixing effects by subtracting the enthalpy change derived from the titration of calcium(II) solution into the 10% acetonitrile solution without the peptide. In a similar way, ITC experiments were carried out at 30°C in 10% aqueous acetonitrile containing 10 mM DPC. These heats of bimolecular interactions were obtained by integrating the peak following each injection of calcium(II). The binding isotherms were derived from the raw ITC data following correction for dilution and mixing effects. These isotherms were fitted using the one-site model by a nonlinear least square analysis with Microcal Origin 7.0 software (Microcal Software, Inc., Northampton, MA, USA) to determine the molar enthalpy change for binding, ΔH, and the corresponding binding constant, K b. From these values, the thermodynamic characterization of the interaction at 30°C was determined from the fundamental equations of thermodynamics, ΔG = −RT ln K b and ΔS = (ΔH − ΔG)/T.
In order to mimic the hydrophobic environment of the bacterial membrane that antimicrobial peptides commonly target, the interactions of these cyclopeptides with calcium(II) were also conducted in the presence of micellar dodecylphosphocholine (DPC). […] However, their association is compensated by an increase in entropy (ΔS values range from ca. 42.7 to 66.5 JK^−1 mol^−1). This entropy/enthalpy compensation could be attributed to a greater degree of dehydration of the hydration spheres around the cyclopeptide molecules and calcium ions following complex formation in the hydrophobic micellar DPC environment. However, there is no significant trend in the enthalpy or entropy changes following calcium(II) binding in the presence of micellar DPC.

[2] = tested on: Staphylococcus aureus ATCC 10566; assay type: cell-based
Experimental: (§2) Microbiological studies were performed on Escherichia coli ATCC 25922 and Staphylococcus aureus ATCC 10566 (American Type Culture Collection (ATCC), Rockville, MD, USA) using carefully standardized conditions. A suspension of the bacteria (in exponential phase of growth) was prepared and then diluted to yield a final concentration of approximately 1 × 10^5 colony forming units (cfu) per milliliter. Stock peptides were dissolved in 9% sucrose solutions containing 5% dimethyl sulfoxide. The 96-well microtiter tray containing the bacterial cultures and peptides was incubated for 18 hrs at 35°C. […] All tests were conducted in triplicate and the reported MIC values were derived from at least three independent experiments.
(§3) COP 4–9 were then designed to include a glutamyl residue to reduce the overall cationic charges on these amphipathic cyclopeptides. […] A lysine residue in COP 4 was sequentially substituted with histidine in COP 5, cysteine in COP 6, and leucine in COP 7. […] As the net positive charges of the cyclopeptide decreased, antimicrobial activity decreased by fourfold (see COP 6). […] The decreasing antimicrobial activities of these cyclopeptides could be attributed to their diminishing cationic character and an inadequate balance of amphipathic residues in their sequences. These structurally similar cyclopeptides (COP 1–9) were subsequently evaluated for calcium(II) binding affinity by ITC and assessed for conformational changes upon calcium(II) binding by circular dichroism (CD).

[3] = tested on: Escherichia coli ATCC 25922; assay type: cell-based
Experimental: as §2, §3

[4] = Isothermal titration calorimetry of Ca2+ binding in 10% acetonitrile in water; details: ITC, 30°C, no DPC, peptide 0.15 or 0.30 mM, Ca(ClO4)2 9 to 15 mM in syringe, one-site model, mean of three experiments ± standard error mean
Experimental: as §1

[5] = Mueller-Hinton microbroth dilution, ca. 1 × 10^5 cfu/mL, 18 hrs at 35°C, visual turbidity, range tested 256 to 2 μg/mL, triplicate, at least three independent experiments

SMILES	Binding affinity for Ca^2+ K b [1]	S. aureus ATCC 10566 MIC ([2]; ATCC 10566, 18 h)	E. coli ATCC 25922 MIC ([3]; ATCC 25922, 18 h)	Binding affinity for Ca^2+ K b [4]	S. aureus ATCC 10566 MIC [2, 5]	E. coli ATCC 25922 MIC [3, 5]
CC(C)C[C@@H]1NC(=O)[C@@H](CC(C)C)NC(=O)[C@H](CCC(=O)O)NC(=O)[C@@H](CCCCN)NC(=O)[C@H](CCCCN)NC(=O)[C@@H](CCCCN)NC(=O)[C@H](Cc2c[nH]cn2)NC(=O)[C@@H](CC(C)C)NC1=O [COP 5] (cyclo(E[dL]L[dL]H[dK]K[dK]))	(5.4 ± 0.6) × 10^3 M^−1	128 mg/L	32 mg/L	(5.3 ± 1.4) × 10^3 M^−1		
CC(C)C[C@@H]1NC(=O)[C@@H](CC(C)C)NC(=O)[C@H](CCC(=O)O)NC(=O)[C@@H](CCCCN)NC(=O)[C@H](CCCCN)NC(=O)[C@@H](CCCCN)NC(=O)[C@H](CCCCN)NC(=O)[C@@H](CC(C)C)NC1=O [COP 4] (cyclo(E[dL]L[dL]K[dK]K[dK]))	(4.7 ± 1.1) × 10^3 M^−1			(3.1 ± 0.7) × 10^3 M^−1	32 mg/L	16 mg/L
CC(C)C[C@@H]1NC(=O)[C@@H](CC(C)C)NC(=O)[C@H](CCC(=O)O)NC(=O)[C@@H](CCCCN)NC(=O)[C@H](CCCCN)NC(=O)[C@@H](CCCCN)NC(=O)[C@H](CS)NC(=O)[C@@H](CC(C)C)NC1=O [COP 6] (cyclo(C[dK]K[dK]E[dL]L[dL]))	(4.9 ± 0.7) × 10^3 M^−1	128 mg/L	128 mg/L	(6.4 ± 2.8) × 10^3 M^−1		
CC(C)C[C@@H]1NC(=O)[C@@H](CC(C)C)NC(=O)[C@H](CC(C)C)NC(=O)[C@@H](CC(C)C)NC(=O)[C@H](CCC(=O)O)NC(=O)[C@@H](CCCCN)NC(=O)[C@H](CCCCN)NC(=O)[C@@H](CCCCN)NC1=O [COP 7] (cyclo(E[dL]L[dL]L[dK]K[dK]))	(4.7 ± 1.0) × 10^3 M^−1	>256 mg/L	>256 mg/L	(8.0 ± 1.2) × 10^3 M^−1		
CC(C)C[C@@H]1NC(=O)[C@@H](CC(C)C)NC(=O)[C@H](CCCCN)NC(=O)[C@@H](CCCCN)NC(=O)[C@H](CCCCN)NC(=O)[C@@H](CCCCN)NC(=O)[C@H](CS)NC(=O)[C@@H](CC(C)C)NC1=O [COP 3] (cyclo(C[dK]K[dK]K[dL]L[dL]))	(3.3 ± 0.3) × 10^3 M^−1	16 mg/L	16 mg/L	(7.9 ± 2.8) × 10^3 M^−1		
CC(C)C[C@@H]1NC(=O)[C@@H](CC(C)C)NC(=O)[C@H](CCC(=O)O)NC(=O)[C@@H](CCCCN)NC(=O)[C@H](CCCCN)NC(=O)[C@@H](CCCCN)NC(=O)[C@H](CCC(=O)O)NC(=O)[C@@H](CC(C)C)NC1=O [COP 9] (cyclo(E[dK]K[dK]E[dL]L[dL]))	(4.1 ± 0.03) × 10^3 M^−1	>256 mg/L	>256 mg/L	(5.4 ± 1.2) × 10^3 M^−1		
CC(C)C[C@@H]1NC(=O)[C@@H](CCCCN)NC(=O)[C@H](CCCCN)NC(=O)[C@@H](CCCCN)NC(=O)[C@H](CCCCN)NC(=O)[C@@H](CC(C)C)NC(=O)[C@H](CC(C)C)NC(=O)[C@@H](CC(C)C)NC1=O [COP 1] (cyclo(K[dK]K[dK]L[dL]L[dL]))				(3.4 ± 0.6) × 10^3 M^−1	8 mg/L	16 mg/L
CC(C)C[C@@H]1NC(=O)[C@@H](CC(C)C)NC(=O)[C@H](CCC(=O)O)NC(=O)[C@@H](CCCCN)NC(=O)[C@H](Cc2c[nH]cn2)NC(=O)[C@@H](CCCCN)NC(=O)[C@H](Cc2c[nH]cn2)NC(=O)[C@@H](CC(C)C)NC1=O [COP 8] (cyclo(E[dL]L[dL]H[dK]H[dK]))	(4.4 ± 0.02) × 10^3 M^−1	>256 mg/L	>256 mg/L	(4.9 ± 0.3) × 10^3 M^−1		
CC(C)C[C@@H]1NC(=O)[C@@H](CC(C)C)NC(=O)[C@H](CC(C)C)NC(=O)[C@@H](CCCCN)NC(=O)[C@H](CCCCN)NC(=O)[C@@H](CCCCN)NC(=O)[C@H](CCCCN)NC(=O)[C@@H](Cc2c[nH]c3ccccc23)NC1=O [COP 2] (cyclo(K[dK]K[dK]L[dL]L[dW]))				(4.8 ± 1.3) × 10^3 M^−1	8 mg/L	16 mg/L
